Measured values from PMC8708872, “Discovery of a Novel Template, 7-Substituted 7-Deaza-4′-Thioadenosine Derivatives as Multi-Kinase Inhibitors” (Pharmaceuticals, 2021).

Legend:
Format in all cases: binding
FGFR2 = biological target: T1, FGFR2 (Homo sapiens, UniProt P21802); assay: Kinome scan; settings: 1000 nM
T1 construct: purchased Eurofins DiscoverX Corporation
Description: (§1) The kinome scan assays were carried out at Eurofins DiscoverX Corporation. For kinome scan profiling of compound 1g, it was screened at 1μM against 96 kinases (N = 2 independent experiments). The results for binding interactions are reported as % inhibition, where higher values indicate strong affinity; see the Supporting Information, Table S1 for full kinome profile.

DCAMKL1 = biological target: T2, DCAMKL1 (Homo sapiens, UniProt O15075); assay: Kinome scan; settings: 1000 nM
T2 construct: purchased Eurofins DiscoverX Corporation
Description: as §1

EGFR(L858R) = biological target: T3, EGFR(L858R) (Homo sapiens, UniProt P00533, L858R); assay: Kinome scan; settings: 1000 nM
T3 construct: purchased Eurofins DiscoverX Corporation
T3 sequence (P00533 25-1210 L858R): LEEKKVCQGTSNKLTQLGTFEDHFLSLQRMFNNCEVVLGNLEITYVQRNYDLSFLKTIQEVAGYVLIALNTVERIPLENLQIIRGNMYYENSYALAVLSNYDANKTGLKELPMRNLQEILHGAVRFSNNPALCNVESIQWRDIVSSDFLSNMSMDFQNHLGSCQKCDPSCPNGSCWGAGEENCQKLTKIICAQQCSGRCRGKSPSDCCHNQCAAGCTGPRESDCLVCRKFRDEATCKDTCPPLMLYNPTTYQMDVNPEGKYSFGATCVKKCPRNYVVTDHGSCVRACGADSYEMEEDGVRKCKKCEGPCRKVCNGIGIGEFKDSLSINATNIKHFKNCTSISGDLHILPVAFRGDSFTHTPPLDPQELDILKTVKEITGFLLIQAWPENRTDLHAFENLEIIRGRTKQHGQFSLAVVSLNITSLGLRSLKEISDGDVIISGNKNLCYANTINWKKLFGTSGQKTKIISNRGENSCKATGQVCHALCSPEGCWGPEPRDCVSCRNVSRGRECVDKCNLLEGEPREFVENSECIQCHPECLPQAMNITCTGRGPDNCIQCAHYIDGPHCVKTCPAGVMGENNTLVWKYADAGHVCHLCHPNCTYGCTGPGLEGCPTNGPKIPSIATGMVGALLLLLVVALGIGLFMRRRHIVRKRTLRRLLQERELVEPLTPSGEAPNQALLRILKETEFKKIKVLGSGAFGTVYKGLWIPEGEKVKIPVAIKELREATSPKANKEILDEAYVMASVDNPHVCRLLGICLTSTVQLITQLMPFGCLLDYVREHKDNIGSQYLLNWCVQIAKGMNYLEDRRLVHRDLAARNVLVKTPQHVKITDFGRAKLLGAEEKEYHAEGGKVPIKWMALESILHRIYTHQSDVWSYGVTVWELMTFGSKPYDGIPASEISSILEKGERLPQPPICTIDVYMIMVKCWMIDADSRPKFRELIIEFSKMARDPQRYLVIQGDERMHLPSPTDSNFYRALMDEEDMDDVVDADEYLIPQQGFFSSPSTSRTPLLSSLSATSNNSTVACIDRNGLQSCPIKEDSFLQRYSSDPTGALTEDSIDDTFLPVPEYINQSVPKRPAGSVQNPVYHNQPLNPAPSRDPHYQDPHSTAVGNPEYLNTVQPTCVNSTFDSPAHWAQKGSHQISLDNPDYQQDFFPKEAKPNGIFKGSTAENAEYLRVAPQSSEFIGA
Description: as §1

IKK-beta = biological target: T4, IKK-beta (Homo sapiens, UniProt O14920); assay: Kinome scan; settings: 1000 nM
T4 construct: purchased Eurofins DiscoverX Corporation
Description: as §1

ERBB4 = biological target: T5, ERBB4 (Homo sapiens, UniProt Q15303); assay: Kinome scan; settings: 1000 nM
T5 construct: purchased Eurofins DiscoverX Corporation
Description: as §1

[1] = biological target: T6, JAK2(JH1domain-catalytic) (Homo sapiens, UniProt O60674); assay: Kinome scan; settings: 1000 nM
T6 construct: JAK2(JH1domain-catalytic); purchased Eurofins DiscoverX Corporation
Description: as §1

PLK1 = biological target: T7, PLK1 (Homo sapiens, UniProt P53350); assay: Kinome scan; settings: 1000 nM
T7 construct: purchased Eurofins DiscoverX Corporation
Description: as §1

RET = biological target: T8, RET (Homo sapiens, UniProt P07949); assay: Kinome scan; settings: 1000 nM
T8 construct: purchased Eurofins DiscoverX Corporation
Description: as §1

p38-beta = biological target: T9, p38-beta (Homo sapiens, UniProt Q15759); assay: Kinome scan; settings: 1000 nM
T9 construct: purchased Eurofins DiscoverX Corporation
Description: as §1

IKK-alpha = biological target: T10, IKK-alpha (Homo sapiens, UniProt O15111); assay: Kinome scan; settings: 1000 nM
T10 construct: purchased Eurofins DiscoverX Corporation
Description: as §1

ABL1-nonphosphorylated = biological target: T11, ABL1-nonphosphorylated (Homo sapiens, UniProt P00519); assay: Kinome scan; settings: 1000 nM
T11 construct: purchased Eurofins DiscoverX Corporation
Description: as §1

CDK11 = biological target: T12, CDK11 (Homo sapiens, UniProt Q9BWU1); assay: Kinome scan; settings: 1000 nM
T12 construct: purchased Eurofins DiscoverX Corporation
Description: as §1

[2] = biological target: T13, RSK2(Kin.Dom.1-N-terminal) (Homo sapiens, UniProt P51812); assay: Kinome scan; settings: 1000 nM
T13 construct: RSK2(Kin.Dom.1-N-terminal); purchased Eurofins DiscoverX Corporation
Description: as §1

RAF1 = biological target: T14, RAF1 (Homo sapiens, UniProt P04049); assay: Kinome scan; settings: 1000 nM
T14 construct: purchased Eurofins DiscoverX Corporation
Description: as §1

CDK2 = biological target: T15, CDK2 (Homo sapiens, UniProt P24941); assay: Kinome scan; settings: 1000 nM
T15 construct: purchased Eurofins DiscoverX Corporation
Description: as §1

MARK3 = biological target: T16, MARK3 (Homo sapiens, UniProt P27448); assay: Kinome scan; settings: 1000 nM
T16 construct: purchased Eurofins DiscoverX Corporation
Description: as §1

FGFR3 = biological target: T17, FGFR3 (Homo sapiens, UniProt P22607); assay: Kinome scan; settings: 1000 nM
T17 construct: purchased Eurofins DiscoverX Corporation
Description: as §1

ACVR1B = biological target: T18, ACVR1B (Homo sapiens, UniProt P36896); assay: Kinome scan; settings: 1000 nM
T18 construct: purchased Eurofins DiscoverX Corporation
Description: as §1

[3] = biological target: T19, ABL1(E255K)-phosphorylated (Homo sapiens, UniProt P00519, E255K); assay: Kinome scan; settings: 1000 nM
T19 construct: purchased Eurofins DiscoverX Corporation
Description: as §1

AURKA = biological target: T20, AURKA (Homo sapiens, UniProt O14965); assay: Kinome scan; settings: 1000 nM
T20 construct: purchased Eurofins DiscoverX Corporation
Description: as §1

TGFBR1 = biological target: T21, TGFBR1 (Homo sapiens, UniProt P36897); assay: Kinome scan; settings: 1000 nM
T21 construct: purchased Eurofins DiscoverX Corporation
Description: as §1

PIK3C2B = biological target: T22, PIK3C2B (Homo sapiens, UniProt O00750); assay: Kinome scan; settings: 1000 nM
T22 construct: purchased Eurofins DiscoverX Corporation
Description: as §1

BTK = biological target: T23, BTK (Homo sapiens, UniProt Q06187); assay: Kinome scan; settings: 1000 nM
T23 construct: purchased Eurofins DiscoverX Corporation
Description: as §1

MET = biological target: T24, MET (Homo sapiens, UniProt P08581); assay: Kinome scan; settings: 1000 nM
T24 construct: purchased Eurofins DiscoverX Corporation
Description: as §1

PCTK1 = biological target: T25, PCTK1 (Homo sapiens, UniProt Q00536); assay: Kinome scan; settings: 1000 nM
T25 construct: purchased Eurofins DiscoverX Corporation
T25 sequence (Q00536 whole entry): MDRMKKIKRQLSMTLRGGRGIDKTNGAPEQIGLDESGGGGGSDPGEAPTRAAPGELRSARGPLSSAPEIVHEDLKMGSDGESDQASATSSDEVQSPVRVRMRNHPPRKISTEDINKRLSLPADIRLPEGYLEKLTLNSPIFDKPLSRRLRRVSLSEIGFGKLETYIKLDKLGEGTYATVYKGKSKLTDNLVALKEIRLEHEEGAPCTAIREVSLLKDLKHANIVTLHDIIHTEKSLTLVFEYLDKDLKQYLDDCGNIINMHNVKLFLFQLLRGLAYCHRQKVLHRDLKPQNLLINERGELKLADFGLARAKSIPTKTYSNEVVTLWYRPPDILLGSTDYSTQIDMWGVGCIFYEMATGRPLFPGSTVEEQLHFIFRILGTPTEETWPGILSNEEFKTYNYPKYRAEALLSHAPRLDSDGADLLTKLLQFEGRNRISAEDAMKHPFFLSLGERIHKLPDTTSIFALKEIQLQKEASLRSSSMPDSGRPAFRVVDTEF
Description: as §1

JNK3 = biological target: T26, JNK3 (Homo sapiens, UniProt P53779); assay: Kinome scan; settings: 1000 nM
T26 construct: purchased Eurofins DiscoverX Corporation
T26 sequence (P53779 whole entry): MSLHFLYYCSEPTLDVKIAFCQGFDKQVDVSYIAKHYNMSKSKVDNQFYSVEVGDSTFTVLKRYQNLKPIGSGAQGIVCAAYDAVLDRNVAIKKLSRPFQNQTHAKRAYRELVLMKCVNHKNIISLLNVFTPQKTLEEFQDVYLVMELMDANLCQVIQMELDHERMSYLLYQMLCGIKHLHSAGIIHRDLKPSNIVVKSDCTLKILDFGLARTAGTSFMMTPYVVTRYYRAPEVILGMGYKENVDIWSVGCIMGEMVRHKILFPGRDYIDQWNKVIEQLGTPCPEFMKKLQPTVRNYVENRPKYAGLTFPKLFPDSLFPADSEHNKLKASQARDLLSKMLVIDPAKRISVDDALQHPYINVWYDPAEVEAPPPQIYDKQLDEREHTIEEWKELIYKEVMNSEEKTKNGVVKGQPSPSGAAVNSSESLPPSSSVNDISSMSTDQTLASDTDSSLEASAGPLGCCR
Description: as §1

SRC = biological target: T27, SRC (Homo sapiens, UniProt P12931); assay: Kinome scan; settings: 1000 nM
T27 construct: purchased Eurofins DiscoverX Corporation
Description: as §1

Kinome scan = settings: 1000 nM, ZAP70 (Entrez gene symbol printed STK32C)
Description: as §1

AXL = biological target: T28, AXL (Homo sapiens, UniProt P30530); assay: Kinome scan; settings: 1000 nM
T28 construct: purchased Eurofins DiscoverX Corporation
Description: as §1

TIE2 = biological target: T29, TIE2 (Homo sapiens, UniProt Q02763); assay: Kinome scan; settings: 1000 nM
T29 construct: purchased Eurofins DiscoverX Corporation
Description: as §1

VEGFR2 = biological target: T30, VEGFR2 (Homo sapiens, UniProt P35968); assay: Kinome scan; settings: 1000 nM
T30 construct: purchased Eurofins DiscoverX Corporation
Description: as §1

KIT = biological target: T31, KIT (Homo sapiens, UniProt P10721); assay: Kinome scan; settings: 1000 nM
T31 construct: purchased Eurofins DiscoverX Corporation
Description: as §1

PIK3CG = biological target: T32, PIK3CG (Homo sapiens, UniProt P48736); assay: Kinome scan; settings: 1000 nM
T32 construct: purchased Eurofins DiscoverX Corporation
Description: as §1

PAK1 = biological target: T33, PAK1 (Homo sapiens, UniProt Q13153); assay: Kinome scan; settings: 1000 nM
T33 construct: purchased Eurofins DiscoverX Corporation
Description: as §1

TSSK1B = biological target: T34, TSSK1B (Homo sapiens, UniProt Q9BXA7); assay: Kinome scan; settings: 1000 nM
T34 construct: purchased Eurofins DiscoverX Corporation
Description: as §1

PRKCE = biological target: T35, PRKCE (Homo sapiens, UniProt Q02156); assay: Kinome scan; settings: 1000 nM
T35 construct: purchased Eurofins DiscoverX Corporation
Description: as §1

CDK7 = biological target: T36, CDK7 (Homo sapiens, UniProt P50613); assay: Kinome scan; settings: 1000 nM
T36 construct: purchased Eurofins DiscoverX Corporation
Description: as §1

CDK3 = biological target: T37, CDK3 (Homo sapiens, UniProt Q00526); assay: Kinome scan; settings: 1000 nM
T37 construct: purchased Eurofins DiscoverX Corporation
Description: as §1

EGFR = biological target: T38, EGFR (Homo sapiens, UniProt P00533); assay: Kinome scan; settings: 1000 nM
T38 construct: purchased Eurofins DiscoverX Corporation
Description: as §1

AKT1 = biological target: T39, AKT1 (Homo sapiens, UniProt P31749); assay: Kinome scan; settings: 1000 nM
T39 construct: purchased Eurofins DiscoverX Corporation
T39 sequence (P31749 whole entry): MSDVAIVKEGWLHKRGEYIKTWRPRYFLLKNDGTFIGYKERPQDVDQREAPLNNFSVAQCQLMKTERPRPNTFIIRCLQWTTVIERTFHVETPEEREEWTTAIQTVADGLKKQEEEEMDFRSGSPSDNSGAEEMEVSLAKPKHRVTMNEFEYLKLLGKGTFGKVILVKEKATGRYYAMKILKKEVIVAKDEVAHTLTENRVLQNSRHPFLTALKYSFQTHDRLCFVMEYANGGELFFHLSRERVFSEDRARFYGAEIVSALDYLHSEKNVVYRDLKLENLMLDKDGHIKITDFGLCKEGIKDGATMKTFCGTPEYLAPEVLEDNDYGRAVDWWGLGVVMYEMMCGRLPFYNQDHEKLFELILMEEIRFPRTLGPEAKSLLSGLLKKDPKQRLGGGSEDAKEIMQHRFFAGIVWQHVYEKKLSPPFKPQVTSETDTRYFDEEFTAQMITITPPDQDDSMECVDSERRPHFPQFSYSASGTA
Description: as §1

ROCK2 = biological target: T40, ROCK2 (Homo sapiens, UniProt O75116); assay: Kinome scan; settings: 1000 nM
T40 construct: purchased Eurofins DiscoverX Corporation
T40 sequence (O75116 whole entry): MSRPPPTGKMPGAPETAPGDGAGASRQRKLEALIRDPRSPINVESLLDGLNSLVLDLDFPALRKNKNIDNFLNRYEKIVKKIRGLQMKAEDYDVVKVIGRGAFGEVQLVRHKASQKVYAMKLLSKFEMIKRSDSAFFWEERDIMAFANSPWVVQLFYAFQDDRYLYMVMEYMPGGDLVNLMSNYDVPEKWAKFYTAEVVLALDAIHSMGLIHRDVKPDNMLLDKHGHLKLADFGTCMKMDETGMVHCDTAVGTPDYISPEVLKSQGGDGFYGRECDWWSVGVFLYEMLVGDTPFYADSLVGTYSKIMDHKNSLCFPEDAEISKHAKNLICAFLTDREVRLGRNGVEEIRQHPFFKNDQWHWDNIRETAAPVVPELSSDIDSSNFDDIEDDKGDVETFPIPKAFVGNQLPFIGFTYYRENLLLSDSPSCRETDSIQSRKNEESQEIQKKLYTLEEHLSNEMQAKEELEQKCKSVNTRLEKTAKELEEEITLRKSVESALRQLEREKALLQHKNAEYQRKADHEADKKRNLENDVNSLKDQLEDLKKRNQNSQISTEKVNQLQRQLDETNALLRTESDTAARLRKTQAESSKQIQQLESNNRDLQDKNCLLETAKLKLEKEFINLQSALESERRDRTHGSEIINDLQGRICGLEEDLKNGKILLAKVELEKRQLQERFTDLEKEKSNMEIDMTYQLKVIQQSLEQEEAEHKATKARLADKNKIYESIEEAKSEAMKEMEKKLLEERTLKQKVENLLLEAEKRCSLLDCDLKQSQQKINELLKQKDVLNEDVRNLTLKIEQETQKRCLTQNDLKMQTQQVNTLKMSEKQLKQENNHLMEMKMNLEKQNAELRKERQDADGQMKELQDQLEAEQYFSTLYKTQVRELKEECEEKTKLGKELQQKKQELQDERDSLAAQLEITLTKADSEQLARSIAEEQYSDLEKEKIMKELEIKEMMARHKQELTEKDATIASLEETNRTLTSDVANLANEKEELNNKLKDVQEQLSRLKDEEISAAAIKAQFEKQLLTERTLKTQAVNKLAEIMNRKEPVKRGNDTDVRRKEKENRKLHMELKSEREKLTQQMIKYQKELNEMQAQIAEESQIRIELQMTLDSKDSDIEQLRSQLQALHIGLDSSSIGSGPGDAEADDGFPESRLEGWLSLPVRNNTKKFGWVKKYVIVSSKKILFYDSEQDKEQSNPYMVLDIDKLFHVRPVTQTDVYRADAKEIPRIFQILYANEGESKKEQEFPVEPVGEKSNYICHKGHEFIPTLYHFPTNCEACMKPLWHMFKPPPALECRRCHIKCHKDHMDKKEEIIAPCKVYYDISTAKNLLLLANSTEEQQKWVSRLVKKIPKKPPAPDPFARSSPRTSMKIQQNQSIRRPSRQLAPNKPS
Description: as §1

FLT3 = biological target: T41, FLT3 (Homo sapiens, UniProt P36888); assay: Kinome scan; settings: 1000 nM
T41 construct: purchased Eurofins DiscoverX Corporation
T41 sequence (P36888 27-993): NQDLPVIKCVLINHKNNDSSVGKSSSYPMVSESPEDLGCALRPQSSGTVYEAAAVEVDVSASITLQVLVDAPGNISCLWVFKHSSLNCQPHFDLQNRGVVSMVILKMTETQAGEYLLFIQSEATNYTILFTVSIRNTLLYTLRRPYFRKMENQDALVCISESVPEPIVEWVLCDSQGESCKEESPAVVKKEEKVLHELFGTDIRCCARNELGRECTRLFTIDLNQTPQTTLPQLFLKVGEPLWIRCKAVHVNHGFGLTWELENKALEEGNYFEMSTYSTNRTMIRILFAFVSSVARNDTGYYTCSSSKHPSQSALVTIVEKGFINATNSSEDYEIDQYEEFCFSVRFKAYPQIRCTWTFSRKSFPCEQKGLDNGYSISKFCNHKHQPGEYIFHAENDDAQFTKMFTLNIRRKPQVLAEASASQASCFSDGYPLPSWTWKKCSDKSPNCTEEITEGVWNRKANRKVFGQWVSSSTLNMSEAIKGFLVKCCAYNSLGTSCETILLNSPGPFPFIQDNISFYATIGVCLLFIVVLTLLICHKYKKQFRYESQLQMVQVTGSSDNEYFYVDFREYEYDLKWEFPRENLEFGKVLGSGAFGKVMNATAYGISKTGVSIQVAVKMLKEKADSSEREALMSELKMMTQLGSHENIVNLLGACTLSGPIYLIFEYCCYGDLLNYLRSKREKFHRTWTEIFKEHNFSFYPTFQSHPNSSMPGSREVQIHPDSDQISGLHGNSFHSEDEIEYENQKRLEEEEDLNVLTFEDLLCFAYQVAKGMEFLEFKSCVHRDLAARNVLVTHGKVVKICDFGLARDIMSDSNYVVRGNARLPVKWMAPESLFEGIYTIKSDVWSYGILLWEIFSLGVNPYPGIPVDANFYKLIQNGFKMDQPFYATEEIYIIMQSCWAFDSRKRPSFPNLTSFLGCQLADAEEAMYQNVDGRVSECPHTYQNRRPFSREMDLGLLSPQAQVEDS
Description: as §1

inhibition at 1 µM (FGFR2): 12%
inhibition at 1 µM (DCAMKL1): 6%
inhibition at 1 µM (EGFR(L858R)): 0%
inhibition at 1 µM (IKK-beta): 0%
inhibition at 1 µM (ERBB4): 3%
inhibition at 1 µM [1]: 35%
inhibition at 1 µM (PLK1): 0%
inhibition at 1 µM (RET): 11%
inhibition at 1 µM (p38-beta): 3%
inhibition at 1 µM (IKK-alpha): 10%
inhibition at 1 µM (ABL1-nonphosphorylated): 39%
inhibition at 1 µM (CDK11): 72.1%
inhibition at 1 µM [2]: 55%
inhibition at 1 µM (RAF1): 8%
inhibition at 1 µM (CDK2): 9%
inhibition at 1 µM (MARK3): 0%
inhibition at 1 µM (FGFR3): 10%
inhibition at 1 µM (ACVR1B): 29%
inhibition at 1 µM [3]: 18%
inhibition at 1 µM (AURKA): 22%
inhibition at 1 µM (TGFBR1): 11%
inhibition at 1 µM (PIK3C2B): 1%
inhibition at 1 µM (BTK): 0%
inhibition at 1 µM (MET): 4%
inhibition at 1 µM (PCTK1): 0%
inhibition at 1 µM (JNK3): 13%
inhibition at 1 µM (SRC): 6%
inhibition at 1 µM (AXL): 7%
inhibition at 1 µM (TIE2): 6%
inhibition at 1 µM (VEGFR2): 30%
inhibition at 1 µM (KIT): 1%
inhibition at 1 µM (PIK3CG): 0%
inhibition at 1 µM (PAK1): 18%
inhibition at 1 µM (TSSK1B): 16%
inhibition at 1 µM (PRKCE): 0%
inhibition at 1 µM (CDK7): 52.3%
inhibition at 1 µM (CDK3): 18%
inhibition at 1 µM (EGFR): 0%
inhibition at 1 µM (AKT1): 7%
inhibition at 1 µM (ROCK2): 27%
inhibition at 1 µM (FLT3): 27%
SMILES: C#Cc1cn([C@@H]2S[C@H](CO)[C@@H](O)[C@H]2O)c2ncnc(N)c12 [Compound 1g, (2R,3R,4S,5R)-2-(4-Amino-5-ethynyl-7H-pyrrolo[2,3-d]pyrimidin-7-yl)-5-(hydroxymethyl)tetrahydrothiophene-3,4-diol]
% inhibition (Kinome scan): 0.0%
